Measurements from ChEMBL document CHEMBL1153448, “Diether derivatives of homo- or substituted piperidines as non-imidazole histamine H3 receptor ligands” (Bioorg Med Chem, 2009).

biological target: Histamine H3 receptor (Rattus norvegicus, UniProt Q9QYN8); assay: Binding affinity to histamine H3 receptor in rat cerebral cortex; format: tissue-based
Sequence (Q9QYN8 whole entry): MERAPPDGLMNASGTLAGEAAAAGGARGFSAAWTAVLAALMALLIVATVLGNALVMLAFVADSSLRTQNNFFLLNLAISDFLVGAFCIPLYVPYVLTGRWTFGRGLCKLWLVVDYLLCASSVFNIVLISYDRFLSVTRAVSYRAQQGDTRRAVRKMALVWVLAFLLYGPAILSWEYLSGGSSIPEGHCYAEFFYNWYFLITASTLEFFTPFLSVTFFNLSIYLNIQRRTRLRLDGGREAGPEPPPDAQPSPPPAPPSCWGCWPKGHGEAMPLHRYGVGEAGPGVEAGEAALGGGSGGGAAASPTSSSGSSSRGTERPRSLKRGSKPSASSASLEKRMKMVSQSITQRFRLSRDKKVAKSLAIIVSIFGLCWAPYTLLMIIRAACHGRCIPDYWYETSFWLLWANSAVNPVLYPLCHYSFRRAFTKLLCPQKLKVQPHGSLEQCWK

Row | Ki [nM] | Structure (SMILES)
1 | 17 | Clc1ccc(CCCOCCCN2CCCCC2)cc1 [PITOLISANT]

biological target: Histamine H3 receptor (Homo sapiens, UniProt Q9Y5N1); assay: Displacement of [125I]Iodoproxyfran from human histamine H3 receptor expressed in HEK293 cells; format: cell-based
Sequence (Q9Y5N1 whole entry): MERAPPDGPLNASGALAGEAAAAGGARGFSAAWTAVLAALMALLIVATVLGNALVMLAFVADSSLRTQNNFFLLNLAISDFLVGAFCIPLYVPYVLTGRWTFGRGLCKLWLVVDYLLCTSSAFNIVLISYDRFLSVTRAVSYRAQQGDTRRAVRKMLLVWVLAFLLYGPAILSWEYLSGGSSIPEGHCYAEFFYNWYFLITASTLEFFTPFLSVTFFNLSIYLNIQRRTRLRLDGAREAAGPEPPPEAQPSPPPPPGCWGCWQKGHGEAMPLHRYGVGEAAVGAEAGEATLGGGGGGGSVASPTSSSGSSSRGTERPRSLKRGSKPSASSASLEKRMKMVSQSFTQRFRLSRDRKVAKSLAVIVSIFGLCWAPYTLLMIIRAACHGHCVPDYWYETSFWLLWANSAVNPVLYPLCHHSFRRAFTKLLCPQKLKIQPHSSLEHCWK

Row | Structure (SMILES) | Ki [nM]
2 | COc1cccc(OCCOCCCN2CCC(C)CC2)c1 | 12.5
3 | CC1CCCN(CCCOCCCOc2ccc(Cl)cc2)C1 (stereo not drawn) | 3.2
4 | CC1CCN(CCCOCCCOc2ccc(Cl)cc2)CC1 | 27.9
5 | CC1CCCN(CCCOCCCOc2ccc(C(C)(C)C)cc2)C1 (stereo not drawn) | 12.8
6 | CC1CCN(CCCOCCCOc2ccc(C(C)(C)C)cc2)CC1 | 51
7 | CC(C)(C)c1ccc(OCCCOCCCN2CCCCCC2)cc1 | 7.7
8 | COc1cccc(OCCOCCCN2CCCCCC2)c1 | 7.2

The remaining lines, values ahead:

Row | Ki [nM] | Structure (SMILES)
9 | 14.8 | COc1cccc(OCCOCCCN2CCCC(C)C2)c1 (stereo not drawn)
10 | 62 | CC1CCCN(CCCOCCOc2ccc(C(C)(C)C)cc2)C1 (stereo not drawn)
11 | 27.3 | COc1cccc(OCCCOCCCN2CCCC(C)C2)c1 (stereo not drawn)
12 | 49 | COc1cccc(OCCCOCCCN2CCC(C)CC2)c1
13 | 18.6 | COc1cccc(OCCCOCCCN2CCCCCC2)c1
